Values of other authors as cited in patent US11419828B2, “Hair care terpinen 4-ol (T4O) composition for the treatment of demodex mites on scalp” (priority 2021, dated 2022).

Tests used:
Demodex = settings: 38% concentration of terpinen-4-ol, over a period of 4 weeks
Demodex mites = settings: 75% alcohol, 10% povidone-iodine, erythromycin
[1] = at levels up to 75%

Row | Compound | Demodex mites' resistance to antiseptic agent (Demodex mites) | other results
1 | CC1=CCC(O)(C(C)C)CC1 (centres unmarked) [terpinen-4-ol, Terpinen-4-ol] | – | reduction of Demodex (Demodex): reduce Demodex effectively
2 | povidone-iodine | resistant | –
3 | OCCCO [Propanediol, Propanediol 1,3] | – | potential to irritate or sensitize skin [1]: low potential to irritate or sensitize skin
4 | CCO [alcohol] | resistant | –
5 | CC[C@H]1OC(=O)[C@H](C)[C@@H](O[C@H]2C[C@@](C)(OC)[C@@H](O)[C@H](C)O2)[C@H](C)[C@@H](O[C@@H]2O[C@H](C)C[C@H](N(C)C)[C@H]2O)[C@](C)(O)C[C@@H](C)C(=O)[C@H](C)[C@@H](O)[C@]1(C)O [erythromycin] | resistant | –
